Results from article PMC8900822 (Acta Crystallographica. Section D, Structural Biology, 2022).

How the values were obtained:
TweCA = target: T1, TweCA (Thalassiosira weissflogii, UniProt Q5U9J1); assay: biochemical
T1 sequence (Q5U9J1 1-281): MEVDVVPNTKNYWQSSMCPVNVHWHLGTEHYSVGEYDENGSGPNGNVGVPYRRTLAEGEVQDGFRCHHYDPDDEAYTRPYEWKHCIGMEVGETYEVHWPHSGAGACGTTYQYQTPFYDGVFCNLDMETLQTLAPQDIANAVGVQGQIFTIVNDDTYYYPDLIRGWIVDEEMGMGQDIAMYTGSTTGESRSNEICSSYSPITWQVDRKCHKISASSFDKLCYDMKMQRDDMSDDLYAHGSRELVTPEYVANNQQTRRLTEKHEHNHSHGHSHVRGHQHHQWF

hCA XII = hCA XII (Homo sapiens, UniProt O43570); assay: biochemical
carbonic anhydrase (CA) = test system: carbonic anhydrase (CA); parameters: method as in Lankas & Peter, 1992; conditions: in vivo study, ref Lankas & Peter, 1992; cited from earlier work
BpsCAβ = BpsCAβ (Burkholderia pseudomallei, UniProt Q63Y17); conditions: pH 8.3
BpsCAγ = BpsCAγ (Burkholderia pseudomallei, UniProt Q63SQ4); conditions: pH 8.3
hCA II = hCA II (Homo sapiens, UniProt P00918); assay: biochemical
SmCA = target: T2, SmCA (Schistosoma mansoni, UniProt A0A4Y5UX87, S271R); assay: biochemical
T2 sequence (A0A4Y5UX87 21-298 S271R): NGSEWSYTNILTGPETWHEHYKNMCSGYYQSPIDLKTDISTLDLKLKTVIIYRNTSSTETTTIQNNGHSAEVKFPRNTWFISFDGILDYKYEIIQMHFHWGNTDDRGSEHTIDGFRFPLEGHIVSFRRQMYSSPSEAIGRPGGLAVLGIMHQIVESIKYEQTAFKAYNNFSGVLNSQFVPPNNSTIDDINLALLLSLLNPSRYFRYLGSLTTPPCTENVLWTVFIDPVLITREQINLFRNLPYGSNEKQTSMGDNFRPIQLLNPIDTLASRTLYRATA

hCA IX = target: T3, hCA IX (Homo sapiens, UniProt Q16790); assay: biochemical
T3 construct: made in house

mtCA 02 = mtCA 02 (Mycobacterium tuberculosis, UniProt P9WPJ9); assay: biochemical
VhCAβ = VhCAβ (Vibrio cholerae, UniProt A0A086SLX8); assay: biochemical
mtCA 03 = target: T4, mtCA 03 (Mycobacterium tuberculosis, UniProt P96878); assay: biochemical
T4 sequence (P96878 550-764): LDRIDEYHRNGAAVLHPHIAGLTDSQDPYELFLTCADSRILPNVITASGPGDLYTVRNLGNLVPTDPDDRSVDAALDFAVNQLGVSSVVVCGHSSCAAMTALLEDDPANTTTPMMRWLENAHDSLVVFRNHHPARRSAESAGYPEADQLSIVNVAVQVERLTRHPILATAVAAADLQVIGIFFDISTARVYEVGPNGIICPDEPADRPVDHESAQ

VhCAα = VhCAα (Vibrio cholerae, UniProt Q9KMP6); assay: biochemical
hCA I = hCA I (Homo sapiens, UniProt P00915); assay: Stopped-flow CO2-hydration assay, hCA I
SazCA = target: T5, SazCA (Sulfurihydrogenibium azorense, UniProt C1DTU5); assay: biochemical
T5 sequence (C1DTU5 19-254): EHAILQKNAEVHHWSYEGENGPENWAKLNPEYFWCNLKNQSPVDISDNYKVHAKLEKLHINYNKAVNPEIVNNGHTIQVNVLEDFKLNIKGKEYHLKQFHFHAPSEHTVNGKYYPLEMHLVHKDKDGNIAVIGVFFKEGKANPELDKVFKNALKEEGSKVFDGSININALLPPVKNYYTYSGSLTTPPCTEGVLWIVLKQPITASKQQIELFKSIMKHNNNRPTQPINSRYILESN

Sequence of VhCAβ (A0A086SLX8 entry or part of it): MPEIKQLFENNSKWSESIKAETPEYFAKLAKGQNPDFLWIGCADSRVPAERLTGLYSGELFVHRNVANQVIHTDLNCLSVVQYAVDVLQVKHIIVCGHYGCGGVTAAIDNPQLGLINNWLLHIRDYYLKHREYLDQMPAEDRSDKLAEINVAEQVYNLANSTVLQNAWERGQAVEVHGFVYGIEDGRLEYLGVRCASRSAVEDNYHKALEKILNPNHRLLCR
Sequence of mtCA 02 (P9WPJ9 whole entry, looked up): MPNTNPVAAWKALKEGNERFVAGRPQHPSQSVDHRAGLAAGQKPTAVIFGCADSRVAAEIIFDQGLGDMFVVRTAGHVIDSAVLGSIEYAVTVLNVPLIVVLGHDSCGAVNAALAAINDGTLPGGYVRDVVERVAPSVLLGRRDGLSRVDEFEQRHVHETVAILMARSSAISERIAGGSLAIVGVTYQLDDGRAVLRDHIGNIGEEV
Sequence of VhCAα (Q9KMP6 entry or part of it): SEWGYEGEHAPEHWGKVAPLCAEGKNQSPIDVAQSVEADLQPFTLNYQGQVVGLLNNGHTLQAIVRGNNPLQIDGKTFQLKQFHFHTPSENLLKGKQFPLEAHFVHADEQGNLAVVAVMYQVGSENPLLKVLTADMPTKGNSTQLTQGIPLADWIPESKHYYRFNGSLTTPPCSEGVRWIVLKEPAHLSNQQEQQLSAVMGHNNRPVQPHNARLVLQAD
Sequence of hCA I (P00915 whole entry): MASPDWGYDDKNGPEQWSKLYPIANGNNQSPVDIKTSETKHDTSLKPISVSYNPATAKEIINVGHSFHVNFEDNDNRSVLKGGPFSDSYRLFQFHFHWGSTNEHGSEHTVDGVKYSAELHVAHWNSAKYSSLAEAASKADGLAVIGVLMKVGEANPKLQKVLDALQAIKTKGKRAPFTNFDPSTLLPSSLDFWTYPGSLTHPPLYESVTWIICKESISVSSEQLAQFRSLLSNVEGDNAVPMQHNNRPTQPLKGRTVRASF
Sequence of BpsCAβ (Q63Y17 1-256): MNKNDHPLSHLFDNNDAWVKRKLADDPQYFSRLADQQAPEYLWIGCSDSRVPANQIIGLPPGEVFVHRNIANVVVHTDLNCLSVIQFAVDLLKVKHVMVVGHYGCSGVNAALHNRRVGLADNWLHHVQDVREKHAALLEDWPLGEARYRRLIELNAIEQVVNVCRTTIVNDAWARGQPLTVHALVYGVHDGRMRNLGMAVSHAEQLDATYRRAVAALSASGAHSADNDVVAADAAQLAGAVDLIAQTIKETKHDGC
Sequence of hCA XII (O43570 25-354): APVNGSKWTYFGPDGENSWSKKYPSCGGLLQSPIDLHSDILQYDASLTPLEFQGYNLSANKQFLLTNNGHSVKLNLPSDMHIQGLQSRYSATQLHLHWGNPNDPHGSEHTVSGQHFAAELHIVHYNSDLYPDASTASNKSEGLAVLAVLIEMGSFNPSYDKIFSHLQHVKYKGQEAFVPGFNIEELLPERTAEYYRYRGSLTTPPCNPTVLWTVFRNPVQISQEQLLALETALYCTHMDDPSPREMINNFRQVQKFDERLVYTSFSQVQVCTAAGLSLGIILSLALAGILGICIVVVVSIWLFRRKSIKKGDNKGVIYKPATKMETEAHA
Sequence of BpsCAγ (Q63SQ4 1-174): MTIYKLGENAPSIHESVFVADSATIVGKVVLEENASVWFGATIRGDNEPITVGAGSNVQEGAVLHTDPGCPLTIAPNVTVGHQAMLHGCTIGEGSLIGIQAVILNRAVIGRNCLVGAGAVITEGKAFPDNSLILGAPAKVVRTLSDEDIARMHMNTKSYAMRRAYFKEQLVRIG

Nc1cc(C(Cl)=C(Cl)Cl)c(S(N)(=O)=O)cc1S(N)(=O)=O [Clorsulon, 4-Amino-6-(1,2,2-trichlorovinyl)benzene-1,3-disulfonamide]
Ki (TweCA): 95.8 nM | Ki (hCA XII): 78 nM | carbonic anhydrase (CA) inhibitory activity in rats (carbonic anhydrase (CA)): weak | Ki (BpsCAβ): 223 nM | Ki (BpsCAγ): 2500 nM | Ki (hCA II): 59.1 nM | Ki (SmCA): 225 nM | Ki (hCA IX): 138 nM | Ki (mtCA 02): 2.9 nM | Ki (VhCAβ): 906 nM | Ki (mtCA 03): 828 nM | Ki (VhCAα): 292 nM | Ki (hCA I): 4.52 µM | Ki (SazCA): 7.7 nM
